Test systems include MDA-N; Malme-3M; 786-0; EKVX; A498; OVCAR-4; SK-MEL-2; UACC-62; HOP-62; KM12; MDA-MB-231; K562; M14; MDA-MB-435; UACC-257; RXF 393; ACHN; HL-60; COLO 205; NCI-H23.
Holding throughout (assay): NCI anticancer screen, dose series, 48 h

Each structure is given as a SMILES string.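 Five compound concentrations were applied to cells in 96-well plates for 48 hours; endpoints were derived by simple linear interpolation of the resulting dose-response curve. Here, GI50 denotes the concentration required for 50% inhibition of growth.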 The source made the active and inactive calls. Cut-off read from the data, not from the text of the source: active = GI50 up to about 1.1 µM and inactive = higher. Where a SMILES comes first, the peptide text is derived from it. [ ]: non-standard residue; d: D form. The star is where a group is joined. ξ: configuration not given here. Propanoyl(3-(4-MeO-Ph)) = COc1ccc(CCC(=O)*)cc1; Thr(3ξ) = CC(O)[C@H](N)C(=O)O; dNMeL = CN[C@H](CC(C)C)C(=O)O; Ac5c = NC1(C(=O)O)CCCC1; OBn = c1ccc(CO*)cc1; ξLac = CC(O)C(=O)O

With `O=C1CSC(c2cc3cc(Br)ccc3nc2Cl)N1c1ccc(F)c(Cl)c1` (stereo not given), the GI50 is 48.3 µM (inactive) in the assay on MDA-N; > 50 µM (inactive) in the assay with Malme-3M; 27.4 µM (inactive) in the assay on 786-0; 25.1 µM (inactive) in the assay on EKVX; > 50 µM (inactive) in the assay with A498; > 50 µM (inactive) with OVCAR-4. For the same molecule, the GI50 is > 50 µM (inactive) in the assay on SK-MEL-2; > 50 µM (inactive) with UACC-62; > 50 µM (inactive) in the assay with HOP-62; 35.6 µM (inactive) with KM12; > 50 µM (inactive) in the assay on MDA-MB-231; 18.6 µM (inactive) with K562. Moreover, the GI50 is > 50 µM (inactive) with M14; 25.1 µM (inactive) in the assay with MDA-MB-435; > 50 µM (inactive) in the assay on UACC-257; > 50 µM (inactive) in the assay on RXF 393; > 50 µM (inactive) in the assay on ACHN; > 50 µM (inactive) in the assay with HL-60. In addition, the GI50 with COLO 205 and in the assay on NCI-H23 was > 50 µM (inactive) throughout.
As to `CC(C)/C(Cl)=N/OC(=O)Nc1ccc(F)c(Cl)c1`, the GI50 is 3.92 µM (inactive) in the assay on MDA-N; 1.96 µM (inactive) with Malme-3M; 1.6 µM (inactive) in the assay on 786-0; 2.07 µM (inactive) in the assay on EKVX; 18.2 µM (inactive) in the assay with A498; 8.49 µM (inactive) in the assay on OVCAR-4. In addition, the GI50 in the assay with SK-MEL-2 is 18.8 µM (inactive); with UACC-62, 14.2 µM (inactive); in the assay with HOP-62, 17.6 µM (inactive); in the assay on KM12, 16.6 µM (inactive); in the assay with MDA-MB-231, 16.2 µM (inactive); in the assay with K562, 1.09 µM (active). Moreover, the GI50 with M14 was 3.23 µM (inactive); in the assay on MDA-MB-435, 7.26 µM (inactive); with UACC-257, 13.5 µM (inactive); in the assay with RXF 393, 12.9 µM (inactive); in the assay on ACHN, 1.88 µM (inactive); with HL-60 it was 2.03 µM (inactive). The figures for the GI50 with COLO 205 and with NCI-H23 were 1.77 µM (inactive) and 14.2 µM (inactive), respectively.
As to `O=C1C(CN2CCCC2)CCCC1CN1CCCC1` (stereo not given), the GI50 with MDA-N was 7.59 µM (inactive); with Malme-3M it was 0.611 µM (active); with 786-0, 1.07 µM (active); in the assay on EKVX, 3.52 µM (inactive); with A498 it was 20.7 µM (inactive); in the assay with OVCAR-4 it was 5.75 µM (inactive). The GI50 with SK-MEL-2 was 18.5 µM (inactive); in the assay on UACC-62 it was 16.9 µM (inactive); in the assay on HOP-62 it was > 49.8 µM (inactive); in the assay with KM12 it was 19.7 µM (inactive); in the assay with MDA-MB-231, 15.8 µM (inactive); in the assay with K562, 0.206 µM (active). The GI50 is 1.74 µM (inactive) in the assay with M14; 2.76 µM (inactive) in the assay with MDA-MB-435; 2.1 µM (inactive) in the assay with UACC-257; 2.69 µM (inactive) with RXF 393; 1.82 µM (inactive) in the assay with ACHN; 0.326 µM (active) in the assay with HL-60. Moreover, the figures for the GI50 with COLO 205 and in the assay with NCI-H23 were 1.53 µM (inactive) and 1.95 µM (inactive), respectively.
For the molecule `CN(C)CCCNc1ccc2c(=O)n(CCN(C)C)c(=O)n3c4ccccc4c(=O)c1c23`, the GI50 in the assay with MDA-N was 0.133 µM (active); in the assay on Malme-3M, 0.286 µM (active); with 786-0 it was 0.0419 µM (active); in the assay on EKVX, 0.272 µM (active); with A498 it was 0.309 µM (active); in the assay on OVCAR-4, 0.224 µM (active). In addition, the GI50 in the assay with SK-MEL-2 is 0.798 µM (active); in the assay with UACC-62, 0.342 µM (active); in the assay on HOP-62 it was 0.351 µM (active); with KM12, 0.159 µM (active); in the assay with MDA-MB-231 it was 0.164 µM (active); in the assay with K562, 0.0512 µM (active). Also, the GI50 with M14 is 0.394 µM (active); in the assay with MDA-MB-435, 0.259 µM (active); with UACC-257, 0.396 µM (active); in the assay with RXF 393, 0.783 µM (active); in the assay on ACHN it was 0.0752 µM (active); in the assay on HL-60 it was 0.15 µM (active). In addition, the GI50 is 0.127 µM (active) with COLO 205 and 0.236 µM (active) in the assay with NCI-H23.
On to `COc1ccc(CCC(=O)OC(C)[C@H](NC(=O)[C@@H](CC(C)C)N(C)C(=O)[C@@H]2CCCN2C(=O)C(C)O)C(=O)OCc2ccccc2)cc1` (stereo not given in full) (H-[ξLac]P[dNMeL][Thr(3ξ)](Propanoyl(3-(4-MeO-Ph)))-OBn), for which the GI50 with MDA-N was 32.4 µM (inactive); with Malme-3M, 20.8 µM (inactive); in the assay with 786-0 it was 35.2 µM (inactive); in the assay on EKVX, 80.7 µM (inactive); in the assay on A498, 28.7 µM (inactive); with OVCAR-4, 73.8 µM (inactive). The GI50 is 16.7 µM (inactive) in the assay on SK-MEL-2; 19.2 µM (inactive) in the assay with UACC-62; 99.8 µM (inactive) with HOP-62; 27.9 µM (inactive) in the assay on KM12; 19.3 µM (inactive) in the assay on MDA-MB-231; 27.8 µM (inactive) in the assay with K562. Besides, the GI50 with M14 is 16.9 µM (inactive); in the assay on MDA-MB-435 it was 21.8 µM (inactive); with UACC-257, 18.4 µM (inactive); in the assay with RXF 393, 22.1 µM (inactive); in the assay on ACHN, 41.6 µM (inactive); in the assay on HL-60 it was 28.2 µM (inactive). The GI50 in the assay with COLO 205 was 19.5 µM (inactive); with NCI-H23 it was 41.4 µM (inactive).
For the molecule `NC1(C(=O)NC2(C(=O)O)CCCC2)CCCC1` (H-[Ac5c]-[Ac5c]-OH), the GI50 in the assay with MDA-N, in the assay with Malme-3M, with 786-0, with EKVX, in the assay with A498 and with OVCAR-4 was > 100 µM (inactive) throughout. The GI50 in the assay with SK-MEL-2, in the assay on UACC-62, with HOP-62, with KM12, in the assay with MDA-MB-231 and in the assay on K562 was > 100 µM (inactive) throughout. For the same molecule, the GI50 with M14, with MDA-MB-435, in the assay with UACC-257, in the assay on RXF 393, in the assay on ACHN and in the assay on HL-60 was > 100 µM (inactive) throughout. Also, the GI50 with COLO 205 and in the assay on NCI-H23 was > 100 µM (inactive) throughout.
Turning to `C[C@H](CCC(=O)O)[C@H]1CC[C@H]2[C@@H]3CC[C@@H]4C[C@H](O)CC[C@]4(C)[C@H]3C[C@H](O)[C@]12C` [DEOXYCHOLIC ACID], the GI50 in the assay with MDA-N was 42.2 µM (inactive); in the assay with Malme-3M it was 32.8 µM (inactive); with 786-0, 45.8 µM (inactive); in the assay with EKVX it was 31.4 µM (inactive); in the assay with A498 it was 41.2 µM (inactive); in the assay on OVCAR-4, 49.7 µM (inactive). Also, the GI50 with SK-MEL-2 was 31.2 µM (inactive); with UACC-62, 37.5 µM (inactive); with HOP-62, 26.4 µM (inactive); in the assay on KM12, 49.4 µM (inactive); with MDA-MB-231 it was 41.5 µM (inactive); with K562 it was 36.6 µM (inactive). Besides, the GI50 is 34.3 µM (inactive) in the assay with M14; 42.2 µM (inactive) in the assay with MDA-MB-435; 92.3 µM (inactive) with UACC-257; 52.4 µM (inactive) in the assay on RXF 393; 37.8 µM (inactive) with ACHN; 30.1 µM (inactive) with HL-60. Besides, the GI50 is 27.9 µM (inactive) in the assay with COLO 205 and 39.7 µM (inactive) with NCI-H23.
